Common to all, as to format: cell-based
Series [1] addresses T1, hLPAR1 (human lysophosphatidic acid receptor 1) (Homo sapiens, UniProt Q92633).
T1 construct: expressed in transfected cells
Kind of series: FLIPR intracellular calcium assay, hLPAR1 expressed in CHO-K1 cells. To be noted: antagonism of 1 μM LPA-induced calcium increase, CHO-K1 cells expressing hLPAR1; read-out: LPAR1 IC50. The protocol:
The antagonist property of the compounds disclosed herein was determined using the FLIPR (fluorescence imaging plate reader) method, wherein the compounds are inhibitors for the intracellular calcium increase induced by activation of hLPAR1 (human lysophosphatidic acid receptor 1, accession No. NM_001401.4) expressed in CHO-K1 cells (Chinese hamster ovary cells K1, ATCC).
CHO-K1 cells stably expressing hLPAR1 were cultured in F-12 medium containing 10% FBS (fetal bovine serum, Gibco, 10099-141), 1% penicillin-streptomycin (Gibco, 15140-122) and 0.4 mg/mL hygromycin B (Gibco, 10687010) in a cell incubator (37° C., […]). During 18-24 h prior to the FLIPR experiment, cells at 250,000 cells/mL were seeded into a 96-well plate (25,000 cells/well) and incubated overnight in the cell incubator. On the day of the experiment, the medium was discarded and the cells were washed in a FLIPR buffer (0.3 mL of probenecid (Thermo, P36400), 0.6 mL of 1 M HEPES (Invitrogen, 15630080) and 29.1 mL of HBSS (Invitrogen, 14065056) per 30 mL of buffer). Each well was added with 75 μL of 1 mM Fluo-4 AM fluorescent dye (Thermo, F14202) and then the cells were subjected to dye-loading incubation at 37° C. for 1.0 h. The 96-well plate was then washed once with buffer, added with a buffer containing a test compound or vehicle at 50 μL per well and then incubated for 30 min at room temperature. The cell plate was then placed in the FLIPR for baseline fluorescence measurements (excitation at 485 nm and emission at 525-535 nm). An agonist (oleoyl-L-α-lysophosphatidic acid sodium salt (Sigma, L7260) at a final concentration of 1 μM) or a vehicle (ultrapure water) was then added at 50 μL/well, fluorescence values were measured for 2 min at 1-second intervals, and finally the output fluorescence counts were analyzed.
In general terms: Calcium flux is commonly read through the fluorescence of an indicator in the cells.

Series [2] is described as follows: In vitro cytotoxicity assay in HepG2 cells, CCK-8 method. The settings on record: human, 48 h incubation. The protocol: In vitro cytotoxicity assay for the compounds disclosed herein was performed in HepG2 cells using the CCK-8 method. HepG2 cells (Beina Bio) in the logarithmic growth phase were collected, the concentration of cell suspension was adjusted, and then the cells were plated on a 96-well cell culture plate at 50,000 cells/well. • The cells were then incubated overnight in a cell incubator (5% CO2, 37° C.), and after 80-90% cell confluence was achieved, test compounds or vehicle (DMSO) at various concentration gradients were added after medium change. The resulting mixture was incubated in the cell incubator (5% CO2, 37° C.) for 48 h. After the treatment, the medium in the plate was discarded. The plate was washed twice with PBS, added with CCK-8 working solution (Beyotime) at 100 μL per well, and then incubated at 37° C. for 1.5 h in the dark. Absorbance at OD450nm was measured for each well on a microplate reader, and CC50 value of each compound was analyzed and calculated.
For orientation: Tetrazolium assays rely on reduction of a dye to a coloured formazan, in cell work by metabolically active cells.

Series [3] has as its system A2058 (human melanoma cells). Kind of series: A2058 cell scratch assay (cell migration inhibition). To be noted: A2058 scratch area 0 h vs 24 h, 10 μM LPA, read-out: Cell migration inhibition rate. The protocol:
The activity of the compounds disclosed herein at the cell level in vitro is evaluated by A2058 (human melanoma cells, Beina Bio, BNCC341099) cell scratch assay. The inhibitory activity of the compounds against LPAR1 can be reflected by inhibition of cell scratch healing.
A2058 cells in a T75 cm^2 cell culture flask were digested and gently pipetted into single cells, adjusted to a cell density of 4×10^5 cells/mL, and then seeded into a 24-well plate. After the cell confluence reached 80%, the cell culture plate was taken out and the original medium was discarded. Serum-free medium was then added, and the cells were starved overnight in an incubator (37° C., 5% CO2). The cell culture plate was then taken out, and cell scratches were made along the diameter of the wells using a 200 μL pipette tip. The cell culture plate was then added with 500 μL of serum-free medium and then shaken gently to wash away the residual cells on the scratched surface, and this was repeated twice. The medium was discarded and 500 μL of 1% FBS medium containing the compound was then added, and the mixture was incubated at 37° C. for 30 min. […] Olympus CKX53 was used to observe the scratches, and MShot image analysis system was used to take pictures and measure the scratch area at 0 h. Then the cell culture plate was incubated in the incubator (37° C., 5% CO2). 24 h later, the scratches were observed again with Olympus CKX53, and MShot image analysis system was used to take pictures and measure the scratch area at 24 h. Cell migration inhibition rate was calculated according to the following formula: […]

The structures appear in SMILES notation. Where only a bound is given, the exact number is not on record here.

T1 sequence (Q92633 whole entry): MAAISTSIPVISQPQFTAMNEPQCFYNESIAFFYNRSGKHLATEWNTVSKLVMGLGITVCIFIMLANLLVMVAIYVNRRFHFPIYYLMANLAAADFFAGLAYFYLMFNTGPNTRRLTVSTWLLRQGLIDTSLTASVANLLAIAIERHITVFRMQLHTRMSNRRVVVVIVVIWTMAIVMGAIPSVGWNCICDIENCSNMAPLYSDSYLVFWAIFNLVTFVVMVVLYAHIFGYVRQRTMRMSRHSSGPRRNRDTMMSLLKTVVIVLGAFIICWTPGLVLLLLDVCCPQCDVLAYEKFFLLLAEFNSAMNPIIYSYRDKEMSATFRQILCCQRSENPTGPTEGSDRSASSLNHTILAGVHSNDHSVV

As a reminder, the IC50 is the concentration that inhibits the measured activity by half. Turning to `CN(Cc1ccccc1)C(=O)OCc1c(C2CC2O[C@H]2CCC[C@H](C(=O)O)C2)nnn1C` (mixture of isomers) [Compound 32], in series [1], the half-maximal inhibitory concentration (IC50) was 300 to 10000 nM.
In general, CC50 refers to the concentration that lowers cell viability or growth by half. A low value points to greater toxicity to the cells. As to `CN(Cc1ccccc1)C(=O)NCc1c(-c2ccc(O[C@H]3CCC[C@H](C(=O)O)C3)cc2)nnn1C` (racemic) [Compound 1], the IC50 in series [1] was 50 to 300 nM. The compound further registered a CC50 at 48 h in series [2] above 200 µM. Further, in series [3], the inhibition lay in the range of 30 to 50%.
For `Cn1nnc(-c2ccc(O[C@H]3CCC[C@H](C(=O)O)C3)cc2)c1CNC(=O)/C=C/c1ccccc1` (racemic) [Compound 5], the IC50 in series [1] lay within 300 to 10000 nM. In series [2], this compound registered a cytotoxic concentration (CC50) at 48 h above 200 µM. In addition, the inhibition in series [3] lay in the range of 0 to 30%.
Taken in the same sequence, the figures for `CN(Cc1ccccc1)C(=O)OCc1cn(-c2ccc(O[C@H]3CCC[C@H](C(=O)O)C3)cc2)nn1` (racemic) [Compound 6, (+/−)-(1S,3S)-3-(4-(4-(((benzyl(methyl)carbamoyl)oxo)methyl)-1H-1,2,3-triazol-1-yl)phenoxy)cyclohexane-1-carboxylic acid] were 50 to 300 nM, above 200 µM and 30 to 50%.
Taken in the same sequence, the figures for `CN(Cc1ccccc1)C(=O)OCc1c(-c2ccc(O[C@H]3CCC[C@H](C(=O)O)C3)o2)nnn1C` (racemic) [Compound 12] were 300 to 10000 nM, above 200 µM and 0 to 30%.
Taken in the same sequence, the figures for `Cc1ncc(-c2c(-c3ccc(O[C@H]4CCC[C@H](C(=O)O)C4)cc3)nnn2C)o1` (racemic) [Compound 15, (+/−)-(1S,3S)-3-(4-(1-methyl-5-(2-methyloxazol-5-yl)-1H-1,2,3-triazol-4-yl)phenoxy) cyclohexane-1-carboxylic acid] were 300 to 10000 nM, above 200 µM and 30 to 50%.
Take `Cn1nnc(-c2ccc(O[C@H]3CCC[C@H](C(=O)O)C3)cc2)c1Cn1ccn(Cc2ccccc2)c1=O` (racemic) [Compound 16, (+/−)-(1S,3S)-3-(4-(5-((3-benzyl-2-carbonyl-2,3-dihydro-1H-imidazol-1-yl)methyl)-1-methyl-1H-1,2,3-triazol-4-yl)phenoxy)cyclohexane-1-carboxylic acid]: the IC50 in series [1] fell in the range of 300 to 10000 nM. In series [2], the CC50 at 48 h was above 200 µM. Moreover, the inhibition in series [3] lay within 30 to 50%.
Consider `Cn1nnc(-c2ccc(O[C@H]3CCC[C@H](C(=O)O)C3)cc2)c1CN1CCN(Cc2ccccc2)C1=O` (racemic) [Compound 17, (+/−)-(1S,3S)-3-(4-(5-((3-benzyl-2-carbonylimidazolidin-1-yl)methyl)-1-methyl-1H-1,2,3-triazol-4-yl)phenoxy)cyclohexane-1-carboxylic acid], for which the IC50 in series [1] lay in the range of 50 to 300 nM. The same compound yielded a CC50 at 48 h in series [2] above 200 µM. The inhibition in series [3] lay in the range of 0 to 30%.
As to `Cn1nnc(-c2ccc(O[C@H]3CCC[C@H](C(=O)O)C3)cc2)c1CNS(=O)(=O)c1ccccc1` (racemic) [Compound 18, (+/−)-(1S,3S)-3-(4-(1-methyl-5-(benzenesulfonamidomethyl)-1H-1,2,3-triazol-4-yl)phenoxy)cyclohexane-1-carboxylic acid], in series [1], the IC50 lay in the range of 50 to 300 nM. In addition, the CC50 at 48 h in series [2] is above 200 µM. Further, the inhibition in series [3] is 30 to 50%.
As for `CN(C(=O)Cc1c(-c2ccc(O[C@H]3CCC[C@H](C(=O)O)C3)cc2)nnn1C)C1CCCC1` (racemic) [Compound 19], the IC50 in series [1] was 50 to 300 nM. Further, the CC50 at 48 h in series [2] is above 200 µM. Further, the inhibition in series [3] fell in the range of 0 to 30%.
In the case of `Cn1nnc(-c2ccc(O[C@H]3CCC[C@H](C(=O)O)C3)cc2)c1CNC(=O)C1CCCC1` (racemic) [Compound 20, (+/−)-(1S,3S)-3-(4-(5-(cyclopentanecarboxamido<oxalylamino>methyl)-1-methyl-1H-1,2,3-triazol-4-yl)phenoxy)cyclohexane-1-carboxylate], the IC50 in series [1] is 50 to 300 nM. In series [2], this compound registered a CC50 at 48 h above 200 µM. For the same compound, in series [3], the inhibition lay within 30 to 50%.
Taken in the same sequence, the figures for `Cn1nnc(-c2ccc(O[C@H]3CCC[C@H](C(=O)O)C3)cc2)c1COC1CCCC1` (racemic) [Compound 21, (+/−)-(1S,3S)-3-(4-(5-((cyclopentyloxy)methyl)-1-methyl-1H-1,2,3-triazol-4-yl)phenoxy)cyclohexane-1-carboxylic acid] were 50 to 300 nM, above 200 µM and 30 to 50%.
The like results for `CC(C)OCc1c(-c2ccc(O[C@H]3CCC[C@H](C(=O)O)C3)cc2)nnn1C` (racemic) [Compound 22, (+/−)-(1S,3S)-3-(4-(5-(isopropoxymethyl)-1-methyl-1H-1,2,3-triazol-4-yl)phenoxy)cyclohexane-1-carboxylic acid] were, in that order, 50 to 300 nM, above 200 µM and 30 to 50%.
For `Cn1nnc(-c2ccc(O[C@H]3CCC[C@H](C(=O)O)C3)cc2)c1COCc1ccccc1` (racemic) [Compound 23, (+/−)-(1S,3S)-3-(4-(5-((benzyloxy)methyl)-1-methyl-1H-1,2,3-triazol-4-yl)phenoxy)cyclohexane-1-carboxylic acid], the concentration for half-maximal inhibition (IC50) in series [1] is 50 to 300 nM. The CC50 at 48 h in series [2] is above 200 µM. For the same compound, the inhibition in series [3] lay within 30 to 50%.
Taken in the same sequence, the figures for `Cn1nnc(-c2ccc(O[C@H]3CCC[C@H](C(=O)O)C3)cc2)c1NCc1ccccc1` (racemic) [Compound 24, (+/−)-(1S,3S)-3-(4-(5-(benzylamino)-1-methyl-1H-1,2,3-triazol-4-yl)phenoxy) cyclohexane-1-carboxylate] were 300 to 10000 nM, above 200 µM and 0 to 30%.
As for `Cn1nnc(-c2ccc(O[C@H]3CCC[C@H](C(=O)O)C3)cc2)c1CS(=O)(=O)NC1CCCC1` (racemic) [Compound 33], in series [1], the IC50 was in the range of 300 to 10000 nM.
On the same count and under the same terms, the figure for `Cc1nnn(-c2ccc(O[C@H]3CCC[C@H](C(=O)O)C3)cc2)c1N(C)C(=O)OC1CCCC1` (racemic) [Compound 34] is 300 to 10000 nM; for `Cn1nnc(-c2ccc(O[C@H]3CCC[C@H](C(=O)O)C3)cc2)c1NCC1CCCC1` (racemic) [Compound 36] it is 300 to 10000 nM.
The same measure, in the same setting: the figure for `Cn1nnc(-c2ccc(O[C@H]3CCC[C@H](C(=O)O)C3)cc2)c1NC(=O)Cc1ccccc1` (racemic) [Compound 37] is 300 to 10000 nM; for `Cn1nnc(-c2ccc(O[C@H]3CCC[C@H](C(=O)O)C3)cc2)c1CNc1ncc(C2CCCC2)o1` (racemic) [Compound 38] it is 300 to 10000 nM; for `Cn1nnc(C#CO[C@H]2CCC[C@H](C(=O)O)C2)c1COc1nccc(C2CC2)n1` (racemic) [Compound 39] it is at most 50 nM.
On the same count and under the same terms, then `CN(C(=O)OCc1c(-c2ccc(O[C@H]3CCC[C@H](C(=O)O)C3)cc2)nnn1C1CC1)C1CCCC1` [Compound 35], with 300 to 10000 nM.

Values taken from patent publication US12378204B2, “Triazole compounds and preparation method therefor and use thereof” (WUHAN LL SCIENCE AND TECHNOLOGY DEVELOPMENT CO., LTD., priority 2019, dated 2025).
